Values quoted from earlier work in US10822355B2, “Ultralow-power near infrared lamp light operable targeted organic nanoparticle photodynamic therapy” (University of Massachusetts, priority 2016, dated 2020).

How the values were obtained:
[1] = for ΦΔ (%): literature values (References S2, S6, S7)
[2] = for ε: at 525 nm (B-1), 630 nm (B-2), 661 nm (B-3); for ΦF (%) / ε/10^5 M^−1 cm^−1 / λabs (max) / λem (max): literature values (References S2, S6, S7)

| Molecule | ΦΔ of reference ([1]; in dichloromethane) | ΦΔ (%) [1] [%] | ε [2] [M⁻¹ cm⁻¹] | ΦF (%) [2] [%] | ε/10^5 M^−1 cm^−1 [2] | λabs (max) [2] | λem (max) [2] |
| --- | --- | --- | --- | --- | --- | --- | --- |
| CN(C)c1ccc2nc3ccc(=[N+](C)C)cc-3sc2c1 [methyl blue, methylene blue] | 0.52 | – | – | – | – | – | – |
| 2,6-diiodio-BODIPY [B-1] | – | 79.5 | 85000 | 3 | 0.85 10^5 M^−1 cm^−1 | 529 | 548 |
| 2,6-diiodiodistyl-BODIPY [B-2] | – | 69.0 | 77000 | 5 | 0.77 10^5 M^−1 cm^−1 | 630 | 654 |
| 2,6-diiodiodistyl-BODIPY [B-3] | – | 61.2 | 98000 | 7 | 0.98 10^5 M^−1 cm^−1 | 661 | 689 |
